This is an account of results in patent US20110129508A1 (priority 2008, published 2011).

Series [1] relates to carrageenan paw inflammation model. The settings on record: rat, in vivo.
The subject of series [2] is rat model of diabetic neuropathic pain. Also on record: species or system rats. The conditions noted are these: in vivo.
Series [3] relates to rat model of prostate bone cancer pain. The series can be described thus: animal or person. The series is classed as in vivo, Male Wistar rats. The conditions noted are these: rat, in vivo.
For series [4] the following is noted: dog, in vivo, iv.
Series [5] relates to streptozotocin-induced diabetic neuropathy model of neuropathic pain. The conditions noted are these: rat, in vivo; for maximum non-sedating dose / reduction in hyperalgesia: iv.
For series [6] the following is noted: rat, in vivo; for maximum non-sedating dose: iv.
For series [7] the following is noted: in vivo; cited from earlier work.

Like-named read-outs stand apart in the source and are kept apart here.

leconotide [CVID]: in series [1], the “analgesic response compared to saline administration” value is reported as “effective at inducing an analgesic response”. For the same compound, the “duration of antinociceptive responses following injection of the bolus” value in series [1] (ip) fell in the range of 4 to 6 h. Moreover, the antinociceptive effect entry in series [2] is given as “dose related antinociceptive effects”. Also, the “reversal of the hyperalgesia caused by intratibial prostate bone cancer (FIG. 7)” value in series [3] is reported as “small, statistically non-significant reversal”. In addition, the antinociceptive effects result in series [3] (iv) is “no significant antinociceptive effects”. In addition, in series [4], the “adverse effects on cardiovascular function” value is listed as “no adverse effects on cardiovascular function” and the “toxicological or pathological effect” value is “no toxicological or pathological effect was observed”. Besides, in series [5], the “efficacy compared with gabapentin or morphine alone or in combination” value is “improved efficacy” and the maximum non-sedating dose is 2.0 mg/kg. Besides, the reduction in hyperalgesia result in series [5] (0.02 mg/kg) was “approximately 30%”. For the same compound, the reduction in hyperalgesia result in series [5] (2 mg/kg) is “greater than 50%”. In series [6], the mean rest times is 982.89 s and the maximum non-sedating dose is listed as 2 mg/kg. Also, the “toxicity on intravenous administration” value in series [7] is reported as “less toxic than ziconotide”.
Consider `CSCC[C@@H]1NC(=O)[C@H](CC(C)C)NC(=O)[C@H](CCCNC(=N)N)NC(=O)[C@H](CO)NC(=O)[C@@H]2CSSC[C@@H]3NC(=O)[C@H](CO)NC(=O)CNC(=O)[C@H]([C@@H](C)O)NC(=O)[C@H](CSSC[C@H](N)C(=O)N[C@@H](CCCCN)C(=O)NCC(=O)N[C@@H](CCCCN)C(=O)NCC(=O)N[C@@H](C)C(=O)N[C@@H](CCCCN)C(=O)N2)NC(=O)[C@H](CSSC[C@@H](C(N)=O)NC(=O)[C@H](CCCCN)NC(=O)CNC(=O)[C@H](CO)NC(=O)[C@H](CCCNC(=N)N)NC3=O)NC(=O)[C@H](CC(=O)O)NC(=O)[C@H](Cc2ccc(O)cc2)NC1=O` [MVIIA, ziconotide], for which the maximum non-sedating dose in series [5] and in series [6] was 0.02 mg/kg in each case.
